Laboratory results taken from patent publication US7465722B2, “Biphenyl vasopressin agonists” (Wyeth, priority 2001, dated 2008).

Assays:
Vasopressin V2 = molecular target: T1, Vasopressin V2 (Rattus norvegicus, UniProt Q00788); assay: Vasopressin V2 agonist effects of test compounds in normal conscious water-loaded rats; format: in vivo; settings: oral dose of 10 mg/Kg, urine collected for four hours, Sprague-Dawley (CD) rats; for Urine Volume (% decrease): percent decrease in urine volume vs control; for Urinary Osmolality (% increase): percent increase in osmolality vs control
T1 construct: Vasopressin V2 Agonist Effects of Test Compounds in Normal Conscious Water-Loaded Rats; from tissue; host or cells: whole animal: conscious Sprague-Dawley rats (kidney collecting ducts in vivo)
Description: Vasopressin V2 Agonist Effects of Test Compounds in Normal Conscious Water-Loaded Rats
Male or female normotensive Sprague-Dawley rats (Charles River Laboratories, Inc., Kingston, N.Y.) of 350-500 g body weight were supplied with standard rodent diet (Purina Rodent Lab. Chow 5001) and water ad libitum. On the day of test, rats were placed individually into metabolic cages equipped with devices to separate the feces from the urine and containers for collection of urine. A test compound or a reference agent was given at an oral dose of 10 mg/Kg in a volume of 10 mL/Kg. The vehicle used was 2.5% preboiled corn starch in 20% dimethylsulfoxide (DMSO). Thirty minutes after dosing the test compound, rats were gavaged with water at 30 mL/Kg into the stomach using a feeding needle. During the test, rats were not provided with water or food. Urine was collected for four hours after dosing of the test compound. At the end of four hours, urine volume was measured. Urinary osmolality was determined using a Fiske One-Ten Osmometer (Fiske Associates, Norwood, Mass., 02062) or an Advanced CRYOMATIC Osmometer, Model 3C2 (Advanced Instruments, Norwood, Mass.). Determinations of Na^+, K^+ and Cl^− ion were carried out using ion specific electrodes in a Beckman SYNCHRON ELISE Electrolyte System analyzer. The urinary osmolality should increase proportionally. In the screening test, two rats were used for each compound. If the difference in the urine volume of the two rats was greater than 50%, a third rat was used.

T1 sequence (Q00788 whole entry): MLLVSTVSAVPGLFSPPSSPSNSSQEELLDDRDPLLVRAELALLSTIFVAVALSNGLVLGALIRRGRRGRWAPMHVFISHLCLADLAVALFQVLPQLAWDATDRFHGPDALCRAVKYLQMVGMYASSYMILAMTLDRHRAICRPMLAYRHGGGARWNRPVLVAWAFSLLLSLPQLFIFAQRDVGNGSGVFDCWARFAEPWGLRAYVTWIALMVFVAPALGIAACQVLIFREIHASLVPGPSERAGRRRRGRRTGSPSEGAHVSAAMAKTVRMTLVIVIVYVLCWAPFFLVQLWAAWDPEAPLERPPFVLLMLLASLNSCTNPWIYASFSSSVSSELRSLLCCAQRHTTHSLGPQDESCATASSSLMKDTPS

Row | Compound | melting point | Urine Volume (% decrease) (Vasopressin V2) | Urinary Osmolality (% increase) (Vasopressin V2)
1 | Cc1cccc(-c2ccc(C(=O)N3Cc4cccn4Cc4ccccc43)cc2)c1 [Example 2, (10,11-Dihydro-5H-pyrrolo[2,1-c][1,4]benzodiazepin-10-yl)-(3′-methyl-[1,1′-biphenyl]-4-yl)-methanone] | 128 to 130 °C | 27% | 33%
2 | COc1ccc(-c2ccc(C(=O)N3Cc4cccn4Cc4ccccc43)cc2)cc1 [Example 3, (10,11-Dihydro-5H-pyrrolo[2,1-c][1,4]benzodiazepin-10-yl)-(4′-methoxy[1,1′-biphenyl]-4-yl)-methanone] | 187 to 189 °C | 18% | 78%
3 | O=C(c1ccc(-c2ccccc2)cc1)N1Cc2cccnc2Nc2ccccc21 [Example 4, [1,1′-Biphenyl]-4-yl-(5,11-dihydro-benzo[b]pyrido[2,3-e][1,4]diazepin-6-yl)-methanone] | 175 to 177 °C | 56% | 151%
4 | CN1c2ccccc2N(C(=O)c2ccc(-c3ccccc3)cc2)Cc2cccnc21 [Example 5, [1,1′-Biphenyl]-4-yl-(11-methyl-5,11-dihydro-benzo[b]pyrido[2,3-e][1,4]diazepin-6-yl)-methanone] | 220 to 223 °C | 22% | 26%
5 | COc1ccccc1-c1ccc(C(=O)N2Cc3cccn3Cc3ccccc32)cc1 [Example 1, (2′-Methoxy-[1,1′-biphenyl]-4-yl)-(5H,11H-pyrrolo[2,1-c][1,4]benzodiazepin-10-yl)-methanone] | 145 to 147 °C | 67% | 163%
6 | CN1c2ccccc2CN(C(=O)c2ccc(-c3ccccc3)cc2)c2ccccc21 [Example 7, [1,1′-Biphenyl]-4-yl-(5-methyl-5,11-dihydro-10H-dibenzo[b,e][1,4]diazepin-10-yl)methanone] | 198 to 201 °C | 70% | 189%
7 | COc1ccc(-c2ccc(C(=O)N3Cc4cccn4Cc4ccccc43)c(C)c2)cc1 [Example 10, (5H,11H-Benzo[e]pyrrolo[1,2-a][1,4]diazepin-10-yl)-(4′-methoxy-3-methyl-[1,1′-biphenyl]-4-yl)-methanone] | – | 60% | 234%
8 | O=C(c1ccc(-c2ccccc2)cc1)N1CCCCc2sccc21 [Example 8, [1,1′-Biphenyl]-4-yl-(5,6,7,8-tetrahydro-thieno[3,2-b]azepin-4-yl)-methanone] | 164 to 166 °C | 35% | 73%
9 | O=C(c1ccc(-c2ccccc2)cc1)N1Cc2ccccc2Nc2ccccc21 [Example 6, [1,1′-Biphenyl]-4-yl-(5,11-dihydro-10H-dibenzo[b,e][1,4]diazepin-10-yl)methanone] | 180 to 182 °C | 87% | 247%
10 | O=C(c1ccc(-c2ccccc2)nc1)N1Cc2cccn2Cc2ccccc21 [Example 9, (5H,11H-Benzo[e]pyrrolo[1,2-a][1,4]diazepin-10-yl)-(6-phenyl-pyridin-3-yl)-methanone] | 171 to 174 °C | 62% | 156%
